# Data from patent US20160017054A1, “Spermidine/Spermine N1 - Acetyltransferase Antibodies As Anti-Cancer Drug Compounds” (BIOMARK TECHNOLOGIES INC., priority 2013, published 2016).
# Test system: human tumor cell lines U2-OS, HeLa, Malme-3M, PC-3 and HEK293
# Test: Relative cell viability (percent confluency) during incubation with spermidine
# Assay type: cell-based
# Conditions: spermidine 22 μM to 550 μM
smiles,measurement,setting,value
"NCCCCNCCCN [spermidine, Spermidine]","relative cell viability, expressed as percent confluency",SSAT non-expressing cell lines (U2-OS and HeLa),highest
same,"relative cell viability, expressed as percent confluency",SSAT over-expressing cell lines (Malme-M3 and PC-3),lowest
